In patent publication US10183015B2, “Heterocyclic compounds and methods of use” (Medivation Technologies LLC, priority 2015, dated 2019):
Where “and” joins values, the source holds several entries; their conditions need not be identical. Equal values may be shown once.

Assays:
[1] = system: 60% high fat Paigen diet induced NASH mouse model; assay: Short-term Paigen-diet NASH mouse model: NAFLD (NAS) score histopathology; type: in vivo; design: NAS score: total / NAS score: steatose / NAS score: inflammation / NAS score: fibrosis / NAS score: hepatocyte ballooning: scale not given here
Method: To investigate whether Compound #37 prevents the development of pathology associated with NASH and steatosis in an acute exploratory disease model, a study was conducted using a diet-induced acute liver steatosis model in mice. […]
After acclimation, 8-week old male C57Bl/6J mice (Charles River) weighing about 25 g were randomized in 4 groups according their body weight and treated once daily around noon by oral gavage with vehicle, […] (2-hydroxypropyl)-β-cyclodextrin (HP-β-CD) (n=10); Group 2: Compound #37, 5 mg/kg (n=10) Group 3: Compound #37, 20 mg/kg (n=10) Group 4: Compound #37, 40 mg/kg (n=10). During the treatment period, body weight and food intake (measured over 24h) were measured 3 times per week and once a week, respectively. During the acclimation, all mice were fed a standard diet (Special Diets Services RM1 (E), product no. 801492) and tap water ad libitum. After the acclimation period, mice were fed until the end of the experiment with a 60% high fat Paigen diet (60 kcal % fat, 1.25% cholesterol, and 0.5% cholate; D11061901, Research Diet) and tap water ad libitum.
NAFLD score analysis. A 0.5 cm^3 piece of liver was fixed in 10% formalin for 48-72h, stored in ethanol 70° at 4° C., and processed for eosin/hematoxylin staining and NAFLD score analysis. One section (thickness 3-5 μm) per block was deposited on Superfrost+slides for hematoxylin-eosin staining. Individual slides having a single hepatic lobe section stained with H&E were digitized using a Nanozoomer from Hamamatsu. Sections were evaluated with knowledge of groups. Each section was evaluated and individually scored. A NAFLD scoring system (NAS) adapted from Kleiner et al. (Hepatology 41, 1313-21, 2005), Wu et al. (BMC Vet. Res. 10, 162, 2014), and Lee et al. (J. Lipid Res. 48, 1885-96, 2007). A total of four variables were qualitatively assessed and ranked with a score: (1) hepatocellular steatosis, (2) liver inflammation, (3) lobular fibrosis, and (4) hepatocyte ballooning.

LDLR = assay: DIN mouse model: hepatic LDLR gene expression; type: in vivo; design: key to LDLR 2^DDct: expression relative to vehicle group, normalized to 18S; details: liver, 20 mg/kg group
Method: Gene expression analysis. Hepatic expression levels of genes involved in lipid metabolism (FAS, SREBP1, ACC1, SCD1), cholesterol metabolism (HMG-CoAR, LDLR), SREBP proteolysis (SCAP, INSIG1), ER stress (PERK), oxidative stress (NRF2), inflammation (MCP-1), and fibrosis (collagen 1α1) were quantified by RTqPCR. Expression level was normalized to 18S gene expression and relative expression to vehicle group was calculated with the […] method.
Male C57Bl/6J mice (8 weeks old) were housed in enriched ventilated cages (31×12.5×12.7 cm) throughout the experimental phase. Animals' cages litters were changed at least once a week. Animal were housed 5 per cage on inverted 12-hour light cycle (at 09:00 am lights off), 22±2° C. and 55±10% relative humidity. The acclimation period was 20 days. During the acclimation period, all mice were fed a standard diet (RM1 (E) 801492, SDS) and tap water ad libitum. After the acclimation period, mice were fed with the DIN diet (60% fat, cholesterol enriched) and fructose-enriched tap water ad libitum until the end of the experiment.
At 6 weeks of diet, mice were 4-hour fasted (09:00 am to 1:00 pm) and blood (150 μl/EDTA) was collected at 01:00 pm by retro-orbital bleeding under isoflurane anesthesia. Mice were then allocated in 2 homogenous groups (n=12/group) according to their plasma levels of ALT (average levels: 685U/L), AST (average levels: 627U/L) and HOMA-IR index (average value: 4.7), into 2 homogenous groups (see values at day 0 in Tables 15A and 15B ALT/AST and Tables 16A and 16B for HOMA-IR). Mice were then treated once daily by oral gavage with vehicle (Group 1) or Compound #37 at 20 mg/kg (Group 2) for 70 days.
Hepatic expression levels of genes involved in lipid (FAS, SREBP1, ACC1, SCD1), cholesterol metabolism (HMG-CoAR, LDLR), in SREBP proteolysis (SCAP, INSIG1), in ER stress (PERK), oxidative stress (NRF2), and inflammation (MCP-1) were not changed. However, expression of collagen 1α1, involved in liver fibrosis, was reduced by 66% in mice treated with Compound #37 (p<0.05 vs. vehicle).

[2] = 5 mg/kg, 21 days, group mean, n 10
[3] = 20 mg/kg, 21 days, group mean, n 6
[4] = 40 mg/kg, 9 days, group mean, n 4
[5] = individual animals, vs vehicle mean, 20 mg/kg

CC(C)Cc1cc(-c2nc(-c3ccc(NS(=O)(=O)C(F)(F)F)cc3Cl)cs2)ccn1 [Compound 37, N-(3-chloro-4-(2-(2-isobutylpyridin-4-yl)thiazol-4-yl)phenyl)-1,1,1-trifluoromethanesulfonamide]
animals with Grade 1 hepatocellular steatosis ([1]; 5 mg/kg, 21 days): 9/10 | animals with grade-3 inflammation ([1]; 5 mg/kg, 21 days): 4/10 | animals with limited periportal fibrosis (mostly Grade 1) ([1]; 5 mg/kg, 21 days): 10/10 | NAS score: fibrosis [1, 2]: 1.2 | NAS score: hepatocyte ballooning [1, 2]: 0.3 | NAS score: inflammation [1, 2]: 2 | NAS score: steatose [1, 2]: 1.1 | NAS score: total [1, 2]: 4.6 | NAS score: total ([1]; 5 mg/kg, 21 days, individual animals): 4 (2×) and 5 (4×) and 3 (2×) and 6 (2×) | animals with Grade 1 hepatocellular steatosis ([1]; 20 mg/kg, 21 days): 3/6 | animals with grade-3 inflammation ([1]; 20 mg/kg, 21 days): 1/6 | animals with limited periportal fibrosis (mostly Grade 1) ([1]; 20 mg/kg, 21 days): 3/6 | NAS score: fibrosis [1, 3]: 0.5 | NAS score: hepatocyte ballooning [1, 3]: 0 | NAS score: inflammation [1, 3]: 1.67 | NAS score: steatose [1, 3]: 0.5 | NAS score: total [1, 3]: 2.67 | NAS score: total ([1]; 20 mg/kg, 21 days, individual animals): 2 (2×) and 3 (2×) and 5 and 1 | NAS score: fibrosis [1, 4]: 0 | NAS score: hepatocyte ballooning [1, 4]: 1 | NAS score: inflammation [1, 4]: 0 | NAS score: steatose [1, 4]: 2 | NAS score: total [1, 4]: 3 | NAS score: total ([1]; 40 mg/kg, 9 days, individual animals): 3 | LDLR Dct (LDLR; individual animals, normalised to 18S, 20 mg/kg): 12.37 and 11.75 and 14.3 and 12.94 and 13.5 and 12.33 and 12.03 and 12.22 and 12.97 and 13.44 and 11.28 | LDLR 2^DDct (LDLR; [5]): 1.65 and 2.54 and 0.43 and 1.11 and 0.76 and 1.7 and 2.09 and 1.84 and 1.09 and 0.79 and 3.52 | LDLR DDct (LDLR; [5]): −0.73 and −1.35 and 1.2 and −0.16 and 0.4 and −0.77 and −1.07 and −0.88 and −0.13 and 0.34 and −1.82 | LDLR (Ct) (LDLR; individual animals, 20 mg/kg): 24.92 (2×) and 24.3 and 27.14 and 25.37 and 25.85 and 23.76 and 24.73 and 24.47 and 24.99 and 23.63 | LDLR 2^DDct (LDLR; mean, n 11): 1.59 | LDLR (Ct) (LDLR; mean, n 11): 24.9 | LDLR DDct (LDLR; mean, n 11): −0.45 | LDLR Dct (LDLR; mean, n 11): 12.6
